Reference: PMC5681660, “Reduced hepatitis B and D viral entry using clinically applied drugs as novel inhibitors of the bile acid transporter NTCP” (Scientific Reports, 2017)
Counter-ions that a name gives are not always drawn. Like-named read-outs stand apart in the source and are kept apart here.

Key:
[1] = biological target: T1, human NTCP (Homo sapiens, UniProt Q14973); assay: Screening taurocholate uptake assay (96-well, [14C]taurocholate, 10 µM drug)
T1 sequence (Q14973 1-349): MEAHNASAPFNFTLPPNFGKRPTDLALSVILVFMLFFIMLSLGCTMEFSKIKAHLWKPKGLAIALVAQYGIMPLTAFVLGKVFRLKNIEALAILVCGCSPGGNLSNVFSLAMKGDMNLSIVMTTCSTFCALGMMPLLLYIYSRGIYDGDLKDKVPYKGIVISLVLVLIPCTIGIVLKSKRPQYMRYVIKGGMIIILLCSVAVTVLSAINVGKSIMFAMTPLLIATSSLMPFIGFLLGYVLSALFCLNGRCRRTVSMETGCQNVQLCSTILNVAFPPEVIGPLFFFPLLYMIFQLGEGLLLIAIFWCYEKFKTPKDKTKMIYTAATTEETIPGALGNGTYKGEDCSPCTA

[2] = biological target: T1, human NTCP; assay: Screening fluorescent competitive Myrcludex B-FITC binding assay (96-well, 10 µM drug)
[3] = Prestwick library screen, 10 µM drug, B-score of taurocholate uptake
[4] = combined ranking from functional and binding assay B-scores
[5] = Prestwick library screen, 10 µM drug, B-score of Myrcludex B-FITC binding
[6] = Prestwick library screen, taurocholate uptake, 10 µM drug
[7] = ranking score beside the functional and binding assay B-scores of the screen
[8] = Prestwick library screen, Myrcludex B-FITC binding, 10 µM drug
[9] = combined ranking from functional and binding screening assays
[10] = screen, 10 µM drug, taurocholate uptake
[11] = screen, 10 µM drug, Myrcludex B-FITC binding

Row | Structure (SMILES) | B-score functional assay [1, 3] | Ranking score [1, 4] | B-score binding assay [2, 5] | Ranking score [1, 9] | B-score functional assay [1, 10] | B-score binding assay [2, 11] | other results
1 | COc1ccc(Cc2nccc3cc(OC)c(OC)cc23)cc1OC [Papaverine hydrochloride] | – | – | – | – | – | – | B-score functional assay [1, 6]: -0.09; Ranking score [1, 7]: 728.955; B-score binding assay [2, 8]: 0.722
2 | N[C@@H](C(=O)N[C@@H]1C(=O)N2C(C(=O)O)=C(Cl)CS[C@H]12)c1ccccc1.O [Cefaclor hydrate] | – | – | – | 381.916 | -0.668 | -0.309 | –
3 | CCOc1ccccc1OCC1CNCCO1 (stereo not drawn) [Viloxazine hydrochloride] | – | – | – | – | – | – | B-score functional assay [1]: -1.513; Ranking score [1]: 214.483; B-score binding assay [2]: -0.914
4 | NCC(CC(=O)O)c1ccc(Cl)cc1 (racemic) [Baclofen (R,S)] | 2.955 | 1069.07 | 0.531 | – | – | – | –
5 | C[C@]12CC[C@H](O)C[C@H]1CC[C@@H]1[C@@H]2C[C@@H](O)[C@]2(C)[C@@H](C3=CC(=O)OC3)CC[C@]12O [Digoxigenin] | – | – | – | 283.718 | -0.468 | -1.199 | –
6 | COc1ccc(CN2CCN(C(c3ccc(F)cc3)c3ccc(F)cc3)CC2)c(OC)c1OC.Cl.Cl [Lomerizine hydrochloride] | – | – | – | 328.713 | -0.214 | -1.084 | –
7 | CC1(C)O[C@@H]2C[C@H]3[C@@H]4C[C@H](F)C5=CC(=O)C=C[C@]5(C)[C@H]4[C@@H](O)C[C@]3(C)[C@]2(C(=O)CO)O1 [Flunisolide] | – | – | – | – | – | – | B-score functional assay [1, 6]: 0.152; Ranking score [1, 7]: 805.548; B-score binding assay [2, 8]: 0.284
8 | COc1ccc(C[C@@H]2c3cc(OC)c(OC)cc3CC[N@+]2(C)CCC(=O)OCCCCCOC(=O)CC[N@@+]2(C)CCc3cc(OC)c(OC)cc3[C@H]2Cc2ccc(OC)c(OC)c2)cc1OC [Cisatracurium besylate] | – | – | – | – | – | – | B-score functional assay [1, 6]: 0.628; Ranking score [1, 7]: 764.984; B-score binding assay [2, 8]: -0.016
9 | CN(C)CCOC(=O)COc1ccc(Cl)cc1.Cl [Meclofenoxate hydrochloride] | – | – | – | 355.4 | -0.036 | -1.168 | –
10 | O=C(Oc1cccc2cccnc12)c1ccccc1 [Benzoxiquine] | – | – | – | 381.13 | -0.093 | -0.876 | –
11 | CN(C)[C@@H]1C(O)=C(C(N)=O)C(=O)[C@@]2(O)C(O)=C3C(=O)c4c(O)ccc(Cl)c4[C@@](C)(O)[C@H]3C[C@@H]12 [Chlortetracycline hydrochloride] | – | – | – | – | – | – | B-score functional assay [1, 6]: -0.045; Ranking score [1, 7]: 738.786; B-score binding assay [2, 8]: 0.571
12 | NC(=O)c1ncn([C@@H]2O[C@H](CO)[C@@H](O)[C@H]2O)n1 [Ribavirin] | – | – | – | – | – | – | B-score functional assay [1, 6]: 0.312; Ranking score [1, 7]: 712.803; B-score binding assay [2, 8]: -0.029
13 | CC(CN(C)C)CN1c2ccccc2Sc2ccccc21.CC(CN(C)C)CN1c2ccccc2Sc2ccccc21.O=C(O)C(O)C(O)C(=O)O (stereo not drawn) [Trimeprazine tartrate] | – | – | – | 352.65 | -0.375 | -0.763 | –
14 | NC1CCN(c2c(F)cc3c(=O)c(C(=O)O)cn(C4CC4)c3c2Cl)C1 (stereo not drawn) [Clinafloxacin] | – | – | – | 295.014 | -0.349 | -1.253 | –
15 | NC[C@H]1O[C@H](O[C@H]2[C@H](O[C@@H]3O[C@H](CO)[C@@H](O)[C@H]3O)[C@@H](O)[C@H](N)C[C@@H]2N)[C@H](N)[C@@H](O)[C@@H]1O.O=S(=O)(O)O [Ribostamycin sulfate salt] | 0.797 | 1035.72 | 1.097 | – | – | – | –
16 | NCC[C@H](O)C(=O)N[C@@H]1C[C@H](N)[C@@H](O[C@H]2O[C@H](CN)[C@@H](O)[C@H](O)[C@H]2O)[C@H](O)[C@H]1O[C@H]1O[C@H](CO)[C@@H](O)[C@H](N)[C@H]1O [Amikacin hydrate] | 1.395 | 1074.44 | 0.912 | – | – | – | –

Continued, in another order:

Row | B-score functional assay [1, 3] | Ranking score [1, 4] | B-score binding assay [2, 5] | Structure (SMILES) | Ranking score [1, 9] | B-score functional assay [1, 10] | B-score binding assay [2, 11] | other results
17 | 0.632 | 1004.23 | 1.062 | Cc1ncc(CO)c(CO)c1O [Pyridoxine hydrochloride] | – | – | – | –
18 | 5.352 | 1119.7 | 0.756 | CC1(C)NC(=O)N(c2ccc([N+](=O)[O-])c(C(F)(F)F)c2)C1=O [Nilutamide] | – | – | – | –
19 | 0.676 | 974.49 | 0.754 | Cl.c1cnc(N2CCN(Cc3ccc4c(c3)OCO4)CC2)nc1 [Piribedil hydrochloride] | – | – | – | –
20 | 0.089 | 955.076 | 2.49 | O=C(NC(Cc1cc(=O)[nH]c2ccccc12)C(=O)O)c1ccc(Cl)cc1 (stereo not drawn) [Rebamipide] | – | – | – | –
21 | 0.176 | 845.872 | 0.477 | CC(C)(S)C(N)C(=O)O (racemic) [D,L-Penicillamine] | – | – | – | –
